# Measurements published in ChEMBL document CHEMBL4414618, “Structure-Activity Relationships of Fish Oil Derivatives with Antiallergic Activity in Vitro and in Vivo” (J Med Chem, 2019).
# Experiments:
# RBL-2H3 [1] = assay: (§1) Antiallergic activity in rat RBL2H3 cells assessed as inhibition of DNP-HSA-mediated degranulation by measuring decrease in beta-hexosaminidase activity preincubated for 30 mins followed by DNP-HSA stimulation and measured after 30 mins by 4-nitrophenyl 2-acetamido-2-deoxy-beta-D-glucopyranoside substrate based assay; format: functional, cell-based
# Mus musculus [2] = assay: (§2) Antiallergic activity in BALB/c mouse assessed as reduction in anti-DNP-IgE-mediated passive cutaneous anaphylaxis at 1000 mg/kg, po administered once daily for 5 days followed by anti-DNP-IgE stimulation on day 4 and subsequent DNP-HSA challenge on day 5 post 1 hr compound dose and measured after 30 mins by Evans blue dye-based spectrophotometric method relative to control; format: functional; parameters: scale not given: the % may be the effect or the level left
# Mus musculus [3] = assay: as §2, with “50” for “1000”; format: functional; parameters: scale not given: the % may be the effect or the level left
# RBL-2H3 [4] = assay: as §1, with “incubated for 30 mins prior to FAAH inhibitor URB597 addition further incubated” for “preincubated”; format: functional, cell-based
# [5] = biological target: T1, Fatty-acid amide hydrolase 1 (Homo sapiens, UniProt O00519); assay: Inhibition of human FAAH expressed in baculovirus infected Sf9 cells using N-(6-methoxypyridin-3-yl)octanamide as substrate measured for 15 mins by fluorescence based assay
# T1 sequence (O00519 whole entry): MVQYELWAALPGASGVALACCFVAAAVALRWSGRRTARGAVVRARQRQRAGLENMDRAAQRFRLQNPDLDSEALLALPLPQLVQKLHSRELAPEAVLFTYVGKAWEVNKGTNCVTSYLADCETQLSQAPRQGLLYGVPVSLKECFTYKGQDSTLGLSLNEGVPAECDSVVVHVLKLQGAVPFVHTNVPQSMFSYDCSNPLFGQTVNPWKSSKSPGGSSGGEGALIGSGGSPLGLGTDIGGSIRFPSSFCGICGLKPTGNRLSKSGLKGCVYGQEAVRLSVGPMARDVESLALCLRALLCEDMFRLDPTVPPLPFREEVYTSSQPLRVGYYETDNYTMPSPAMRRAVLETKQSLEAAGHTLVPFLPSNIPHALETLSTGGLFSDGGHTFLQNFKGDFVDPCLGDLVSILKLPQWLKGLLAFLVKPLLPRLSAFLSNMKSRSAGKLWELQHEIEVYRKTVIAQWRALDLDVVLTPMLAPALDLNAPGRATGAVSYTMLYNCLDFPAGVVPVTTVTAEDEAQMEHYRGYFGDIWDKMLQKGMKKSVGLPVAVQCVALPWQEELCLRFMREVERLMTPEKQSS
# RBL-2H3 [6] = assay: Ratio of IC50 for antiallergic activity in rat RBL2H3 cells assessed as inhibition of DNP-HSA-mediated degranulation by measuring decrease in beta-hexosaminidase activity to IC50 for antiallergic activity in rat RBL2H3 cells assessed as inhibition of DNP-HSA-mediated degranulation by measuring decrease in beta-hexosaminidase activity in presence of FAAH inhibitor URB597; format: functional
# RBL-2H3 [7] = assay: as §1, with “incubated for 30 mins prior to CB2 antagonist AM630 addition further incubated” for “preincubated”; format: functional, cell-based
# [8] = biological target: T1, Fatty-acid amide hydrolase 1; assay: Substrate activity at human FAAH expressed in baculovirus infected Sf9 cells assessed as docosahexaenoic acid formation incubated for 60 mins by HPLC analysis; format: ADME; details: sf9, 1 h
Compound,IC50 (RBL-2H3 [1]),other results
CC/C=C\C/C=C\C/C=C\C/C=C\C/C=C\C/C=C\CCC(=O)NCC1CCOCC1,> 50 µM,–
CC/C=C\C/C=C\C/C=C\C/C=C\C/C=C\C/C=C\CCC(=O)NS(=O)(=O)c1ccc(C(=O)O)cc1,> 50 µM,–
CC/C=C\C/C=C\C/C=C\CCCCCCCC(=O)O [LINOLENIC ACID],> 50 µM,–
CC/C=C\C/C=C\C/C=C\C/C=C\C/C=C\C/C=C\CCC(=O)N1CCOCC1,> 50 µM,–
CC/C=C\C/C=C\C/C=C\C/C=C\C/C=C\C/C=C\CCC(=O)NCC(C)O (stereo unspecified),27 µM,–
CC/C=C\C/C=C\C/C=C\C/C=C\C/C=C\C/C=C\CCC(=O)NS(=O)(=O)Cc1ccccc1,22 µM,Activity (Mus musculus [2]): 2%
CC/C=C\C/C=C\C/C=C\C/C=C\C/C=C\C/C=C\CCC(=O)NC(C)C,> 50 µM,–
CC/C=C\C/C=C\C/C=C\C/C=C\C/C=C\C/C=C\CCC(=O)NS(=O)(=O)c1ccc(C(=O)OC)cc1,30 µM,–
CCCCC/C=C\C/C=C\C/C=C\C/C=C\CCCC(=O)O [ARACHIDONIC ACID],> 50 µM,–
CC/C=C\C/C=C\C/C=C\C/C=C\C/C=C\C/C=C\CCC(=O)NS(=O)(=O)c1ccccc1,> 50 µM,–
CC/C=C\C/C=C\C/C=C\C/C=C\C/C=C\C/C=C\CCC(=O)NCCOC,> 50 µM,–
CC(C)(C(=O)O)c1ccc(C(O)CCCN2CCC(C(O)(c3ccccc3)c3ccccc3)CC2)cc1 (stereo unspecified) [FEXOFENADINE],–,Activity (Mus musculus [3]): 39%
CC/C=C\C/C=C\C/C=C\C/C=C\C/C=C\C/C=C\CCC(=O)NCCc1ccc(O)c(O)c1,> 50 µM,–
CC/C=C\C/C=C\C/C=C\C/C=C\C/C=C\C/C=C\CCC(=O)NCC(=O)OC,> 50 µM,–
CC/C=C\C/C=C\C/C=C\C/C=C\C/C=C\C/C=C\CCC(=O)NCCN,> 50 µM,–
CC/C=C\C/C=C\C/C=C\C/C=C\C/C=C\C/C=C\CCC(=O)OC(CO)CO,> 50 µM,–

Compound,IC50 (RBL-2H3 [1]),other results
CC/C=C\C/C=C\C/C=C\C/C=C\C/C=C\C/C=C\CCC(=O)NC(C)(C)C,> 50 µM,–
CC/C=C\C/C=C\C/C=C\CCCCCCCC(=O)NCCO,29 µM,Activity (Mus musculus [2]): 29%
CC/C=C\C/C=C\C/C=C\C/C=C\C/C=C\C/C=C\CCC(=O)NCCO,25 µM,IC50 (RBL-2H3 [4]): 7.6 µM; IC50 [5]: > 50 µM; Ratio IC50 (RBL-2H3 [6]): 3; Activity (Mus musculus [2]): 31%; IC50 (RBL-2H3 [7]): 25 µM; Drug metabolism [8]: Metabolite_Detected
CC/C=C\C/C=C\C/C=C\C/C=C\C/C=C\C/C=C\CCC(=O)NS(=O)(=O)C(F)(F)C(F)(F)F,21 µM,–
CCCCC/C=C\C/C=C\CCCCCCCC(=O)NCCO [LINOLEOYLETHANOLAMIDE],48 µM,–
CCCCC/C=C\C/C=C\CCCCCCCCCCCC(=O)NCCO,> 50 µM,–
CC/C=C\C/C=C\C/C=C\C/C=C\C/C=C\CCCC(=O)NCCO,24 µM,–
CC/C=C\C/C=C\C/C=C\C/C=C\C/C=C\C/C=C\CCC(=O)NS(=O)(=O)c1ccc(C)cc1,27 µM,–
CC/C=C\C/C=C\C/C=C\C/C=C\C/C=C\C/C=C\CCC(=O)NS(=O)(=O)c1ccc(Cl)cc1,24 µM,–
CCCCCCCC/C=C\CCCCCCCC(=O)NCCO [OLEOYLETHANOLAMIDE],> 50 µM,–
CCCCC/C=C\C/C=C\C/C=C\CCCCCCC(=O)NCCO,> 50 µM,–
CCCCC/C=C\C/C=C\C/C=C\CCCCCCC(=O)O [DIHOMO-GAMMA-LINOLENIC ACID],> 50 µM,–
CC/C=C\C/C=C\C/C=C\C/C=C\C/C=C\C/C=C\CCC(=O)OCCOCCO,> 50 µM,–
CC/C=C\C/C=C\C/C=C\C/C=C\C/C=C\C/C=C\CCC(=O)N(CCO)CCO,> 50 µM,–
CC/C=C\C/C=C\C/C=C\C/C=C\C/C=C\C/C=C\CCC(=O)O [DOCONEXENT],> 50 µM,Activity (Mus musculus [2]): 6%
CC/C=C\C/C=C\C/C=C\C/C=C\C/C=C\C/C=C\CCC(=O)NS(=O)(=O)C1CC1,> 50 µM,–
